Reference: ChEMBL document CHEMBL5303304, “EUbOPEN Chemogenomics Library - IncuCyte” (2023)

Tests used:
Type in all cases: toxicity, cell-based
Fibroblast = assay: Incucyte cell viability with human fibroblast; conditions: 10 µM, compound concentration 10 uM
U2OS = assay: Incucyte cell viability with U2OS; conditions: human, 10 µM, compound concentration 10 uM
HEK-293T = assay: Incucyte cell viability with HEK293T; conditions: human, 10 µM, compound concentration 10 uM
Further: unitless GR value; below 1 slowed growth and below 0 cell loss.

| Compound | Growth Rate (Fibroblast; 6 h, replicate number 1) | Growth Rate (Fibroblast; 6 h, replicate number 2) | Growth Rate (Fibroblast; 12 h, replicate number 1) | Growth Rate (Fibroblast; 12 h, replicate number 2) | Growth Rate (Fibroblast; 18 h, replicate number 1) | Growth Rate (Fibroblast; 18 h, replicate number 2) | Growth Rate (Fibroblast; 24 h, replicate number 1) | Growth Rate (Fibroblast; 24 h, replicate number 2) | Growth Rate (U2OS; 0 h, replicate number 2) | Growth Rate (U2OS; 6 h, replicate number 2) | Growth Rate (U2OS; 12 h, replicate number 1) | Growth Rate (U2OS; 12 h, replicate number 2) | Growth Rate (U2OS; 18 h, replicate number 1) | Growth Rate (HEK-293T; 6 h, replicate number 1) | Growth Rate (HEK-293T; 6 h, replicate number 2) | Growth Rate (HEK-293T; 12 h, replicate number 1) | Growth Rate (HEK-293T; 12 h, replicate number 2) | Growth Rate (HEK-293T; 18 h, replicate number 1) | Growth Rate (HEK-293T; 18 h, replicate number 2) | Growth Rate (HEK-293T; 24 h, replicate number 2) | further results |
| --- | --- | --- | --- | --- | --- | --- | --- | --- | --- | --- | --- | --- | --- | --- | --- | --- | --- | --- | --- | --- | --- |
| CCN(C)S(=O)(=O)Nc1cccc(-c2ccc3c(NC(=O)C4CC4)n[nH]c3c2)c1 | -0.58 | -0.37 | -0.17 | -0.25 | -0.01 | -0.16 | 0.13 | -0.03 | -0.42 | -0.06 | -0.32 | 0.08 | -0.12 | -0.21 | -0.69 | -0.1 | -0.46 | -0.03 | -0.33 | -0.21 | Growth Rate (U2OS; 6 h, replicate number 1): -0.66; Growth Rate (U2OS; 18 h, replicate number 2): 0.1; Growth Rate (U2OS; 24 h, replicate number 1): 0.11; Growth Rate (U2OS; 24 h, replicate number 2): 0.17; Growth Rate (HEK-293T; 24 h, replicate number 1): 0 |
| CC(C)N1CCN(Cc2cnc(-c3cc(-c4cccc5[nH]ccc45)cc4[nH]ncc34)o2)CC1 [NEMIRALISIB] | -0.06 |  | 0.04 | 0.83 | 0.27 | 0.75 | 0.3 | 0.85 | 0.94 | 0.36 | 0.83 | 0.64 |  | -0.37 | -0.48 | -0.09 | -0.01 | 0.26 | 0.15 | 0.32 | Growth Rate (U2OS; 0 h, replicate number 1): -0.99; Growth Rate (U2OS; 18 h, replicate number 2): 0.64; Growth Rate (U2OS; 24 h, replicate number 2): 0.6; Growth Rate (HEK-293T; 24 h, replicate number 1): 0.34 |
| CN(C(=O)CCOCCOCCOCCOCCNc1cccc2c1C(=O)N(C1CCC(=O)NC1=O)C2=O)[C@H]1CC[C@@]2(C)[C@@H](CC[C@@H]3[C@@H]2CC[C@]2(C)[C@@H](c4ccc5ccncc5c4)CC[C@@H]32)C1 (stereo not given in full) |  |  |  |  |  | 0.88 |  | 0.91 |  |  | 0.79 | -0.46 | 0.82 | 0.57 | 1 | 0.77 | 0.73 | 0.76 | 0.79 | 0.76 | Growth Rate (Fibroblast; 0 h, replicate number 1): -1; Growth Rate (U2OS; 6 h, replicate number 1): 0.52; Growth Rate (U2OS; 24 h, replicate number 1): 0.92; Growth Rate (HEK-293T; 0 h, replicate number 1): 0.06; Growth Rate (HEK-293T; 0 h, replicate number 2): -0.85; Growth Rate (HEK-293T; 24 h, replicate number 1): 0.88 |
| C[C@@H](Oc1cc(-n2cnc3ccc(OC4CCN(C)CC4)cc32)sc1C(N)=O)c1ccccc1Cl [GSK-579289A] | 0.99 | 1 | 0.94 |  | 0.83 | 0.97 |  |  | 0.48 |  | 0.83 | 0.84 | 0.65 | 0.7 | 0.94 | 0.7 | 0.97 | 0.82 | 1 | 0.99 | Growth Rate (U2OS; 24 h, replicate number 1): 0.93; Growth Rate (U2OS; 24 h, replicate number 2): 0.79; Growth Rate (HEK-293T; 0 h, replicate number 2): 0.69; Growth Rate (HEK-293T; 24 h, replicate number 1): 0.93 |
| CC1CN(CC(=O)N2CC(C)(C)c3nc(CO)c(Cc4ccc(F)cc4)cc32)C(CN2CCOCC2C)CN1 (stereo not given) | 0.63 | 0.4 |  | 0.94 | 0.98 | 0.94 |  | 0.9 |  |  |  |  |  | 0.63 | 0.88 |  | 0.96 |  |  | 0.89 | Growth Rate (U2OS; 0 h, replicate number 1): -0.23; Growth Rate (HEK-293T; 0 h, replicate number 2): -0.63 |
| CCCCOc1c(C(=O)c2c(F)cc(C)cc2F)c[nH]c2nncc1-2 |  |  |  |  |  |  |  |  |  |  |  |  |  |  |  |  |  |  |  |  | Growth Rate (Fibroblast; 0 h, replicate number 1): -1; Growth Rate (U2OS; 0 h, replicate number 1): -1; Growth Rate (HEK-293T; 0 h, replicate number 1): -1 |
| C[C@H](CCC(=O)O)[C@H]1CC[C@H]2[C@@H]3[C@H](O)C[C@@H]4C[C@H](O)CC[C@]4(C)[C@H]3C[C@H](O)[C@]12C [CHOLIC ACID] | -0.41 | 0.33 | 0.82 | 0.56 | 0.38 | 0.65 | 0.81 | 0.97 | 0.9 | 0.92 |  | 0.92 | 0.98 |  |  |  |  |  |  | 1 | Growth Rate (Fibroblast; 0 h, replicate number 1): 0.6; Growth Rate (U2OS; 24 h, replicate number 2): 0.97; Growth Rate (HEK-293T; 0 h, replicate number 1): 0.14; Growth Rate (HEK-293T; 0 h, replicate number 2): 0.01 |
| CN(C)[C@H]1CC[C@H](Nc2ncc3ncnc(Nc4ccc(F)c(Cl)c4)c3n2)CC1 | 0.74 | 0.19 | 0.23 | -0.1 | 0.14 | -0.19 | 0.14 | -0.13 | 0.58 | 0.45 | 0.48 | 0.5 | 0.38 | -0.21 |  | -0.11 |  | 0.12 |  |  | Growth Rate (Fibroblast; 0 h, replicate number 2): -1; Growth Rate (U2OS; 0 h, replicate number 1): -1; Growth Rate (U2OS; 18 h, replicate number 2): 0.48; Growth Rate (U2OS; 24 h, replicate number 1): 0.45; Growth Rate (U2OS; 24 h, replicate number 2): 0.47; Growth Rate (HEK-293T; 0 h, replicate number 2): -1; Growth Rate (HEK-293T; 24 h, replicate number 1): 0.23 |
| O=C(CCCN1CCC(O)(c2ccc(Cl)cc2)CC1)c1ccc(F)cc1 [HALOPERIDOL] | 0.04 | -0.32 | 0.4 | -0.02 | 0.49 | 0.22 | 0.65 | 0.4 | 0.79 | 0.98 | -0.1 |  |  |  | 0.42 |  | 0.63 |  | 0.65 | 0.75 | Growth Rate (U2OS; 0 h, replicate number 1): 0.26; Growth Rate (U2OS; 18 h, replicate number 2): 1; Growth Rate (HEK-293T; 0 h, replicate number 2): -0.68 |
| CCc1ccc(N(CC(C)C)S(=O)(=O)c2ccc(OCC3CCOCC3)c(CO)c2)cc1 [GSK2981278] |  |  |  |  |  | 0.7 | 0.91 | 0.85 | 0.13 | 0.96 |  |  | 0.98 | 0.86 |  | 0.83 | 0.5 | 0.81 | 0.48 | 0.53 | Growth Rate (Fibroblast; 0 h, replicate number 2): 0.86; Growth Rate (U2OS; 0 h, replicate number 1): 0.11; Growth Rate (U2OS; 6 h, replicate number 1): 0.9; Growth Rate (HEK-293T; 0 h, replicate number 1): -0.35; Growth Rate (HEK-293T; 24 h, replicate number 1): 0.82 |
